# Source: patent US10745400B2, “Inhibition of BMP signaling, compounds, compositions and uses thereof” (Vanderbilt University, priority 2018, dated 2020)
# Experiments:
# [1] = Intrinsic clearance, mouse; format: in vitro ADME; conditions: for CLint scaled: mouse
# ALK1/ACVRL1 = ALK1/ACVRL1 (Homo sapiens, UniProt P37023); assay: Kinase assay (33P-ATP filter-binding), ALK1; format: biochemical; conditions: read-out: Kinase Selectivity ALK1/ACVRL1
# Description: (§1) The kinase assays were carried out briefly as follows. Substrate was prepared in Base Reaction Buffer (20 mM Hepes (pH 7.5), 10 mM MgCl2, 1 mM EGTA, 0.02% Brij35, 0.02 mg/ml BSA, 0.1 mM Na3VO4, 2 mM DTT, 1% DMSO). The indicated kinases was delivered into the substrate solution and allowed to gently mix. Next, the specific compound was delivered in DMSO into the kinase mixture by Acoustic technology (Echo550; nanoliter range), and allowed to incubate for 20 minutes at room temperature. Next, ^33P-ATP was delivered into the reaction mixture to initiate the reaction and allowed to incubate at room temperature. After 2 hours, the reactions were spotted onto P81 ion exchange paper and the kinase activity is detected by the filter-binding method.
# ALK6 = ALK6 (Homo sapiens, UniProt O00238); assay: Kinase assay (33P-ATP filter-binding), ALK6; format: biochemical; conditions: read-out: Kinase Selectivity ALK6
# ALK6, sequence (O00238 14-502): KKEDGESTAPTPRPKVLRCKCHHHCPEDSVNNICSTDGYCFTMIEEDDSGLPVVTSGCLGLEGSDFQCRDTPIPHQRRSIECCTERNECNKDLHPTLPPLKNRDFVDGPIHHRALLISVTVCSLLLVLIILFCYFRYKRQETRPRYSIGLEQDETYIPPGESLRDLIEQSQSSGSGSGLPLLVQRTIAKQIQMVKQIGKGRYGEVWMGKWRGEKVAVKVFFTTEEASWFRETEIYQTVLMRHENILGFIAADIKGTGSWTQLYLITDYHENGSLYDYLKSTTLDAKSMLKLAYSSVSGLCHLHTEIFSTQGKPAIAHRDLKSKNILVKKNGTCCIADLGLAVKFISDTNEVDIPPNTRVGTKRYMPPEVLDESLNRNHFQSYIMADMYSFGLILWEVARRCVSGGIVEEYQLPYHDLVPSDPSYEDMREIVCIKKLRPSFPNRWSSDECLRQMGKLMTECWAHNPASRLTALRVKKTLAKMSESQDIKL
# Description: as §1
# [2] = Intrinsic clearance, human; format: in vitro ADME; conditions: for CLint scaled: human
# Protein binding, mouse = format: in vitro ADME
# ALK5 = molecular target: T1, ALK5 (Homo sapiens, UniProt P36897); assay: Kinase assay (33P-ATP filter-binding), ALK5; format: biochemical; conditions: read-out: Kinase Selectivity ALK5
# T1 sequence (P36897 34-503): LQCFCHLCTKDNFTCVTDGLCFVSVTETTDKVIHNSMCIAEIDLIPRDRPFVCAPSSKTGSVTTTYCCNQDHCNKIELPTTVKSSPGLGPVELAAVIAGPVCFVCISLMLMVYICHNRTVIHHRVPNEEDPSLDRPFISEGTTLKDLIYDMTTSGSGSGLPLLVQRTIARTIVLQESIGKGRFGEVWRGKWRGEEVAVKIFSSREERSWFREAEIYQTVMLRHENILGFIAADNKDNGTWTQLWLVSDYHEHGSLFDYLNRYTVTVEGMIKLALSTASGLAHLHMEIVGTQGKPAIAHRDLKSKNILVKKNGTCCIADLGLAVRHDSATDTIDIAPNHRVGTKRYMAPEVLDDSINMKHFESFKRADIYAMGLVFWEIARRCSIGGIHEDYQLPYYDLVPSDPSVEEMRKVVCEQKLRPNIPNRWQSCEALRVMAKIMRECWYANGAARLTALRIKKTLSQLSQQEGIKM
# Description: as §1
# ALK3/BMPR1A = ALK3/BMPR1A (Homo sapiens, UniProt P36894); assay: Kinase assay (33P-ATP filter-binding), ALK3; format: biochemical; conditions: 1 mM; read-out: Kinase Selectivity ALK3/BMPR1A (1 mM)
# ALK3/BMPR1A, sequence (P36894 24-532): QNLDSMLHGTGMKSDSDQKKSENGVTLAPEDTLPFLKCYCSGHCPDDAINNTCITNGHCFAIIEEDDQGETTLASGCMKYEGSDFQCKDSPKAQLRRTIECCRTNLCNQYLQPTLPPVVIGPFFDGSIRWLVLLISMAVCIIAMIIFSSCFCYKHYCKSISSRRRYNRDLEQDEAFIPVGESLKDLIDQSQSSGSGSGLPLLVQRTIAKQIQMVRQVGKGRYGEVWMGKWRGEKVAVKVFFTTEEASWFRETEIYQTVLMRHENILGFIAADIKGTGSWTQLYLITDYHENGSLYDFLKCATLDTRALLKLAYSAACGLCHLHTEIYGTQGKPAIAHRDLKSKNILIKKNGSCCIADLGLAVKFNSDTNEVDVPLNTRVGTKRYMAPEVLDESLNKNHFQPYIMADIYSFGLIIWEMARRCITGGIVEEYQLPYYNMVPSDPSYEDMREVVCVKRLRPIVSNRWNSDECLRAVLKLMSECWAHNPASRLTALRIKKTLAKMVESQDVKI
# Description: as §1
# ALK4 = molecular target: T2, ALK4 (Homo sapiens, UniProt P36896); assay: Kinase assay (33P-ATP filter-binding), ALK4; format: biochemical; conditions: read-out: Kinase Selectivity ALK4
# T2 sequence (P36896 24-505): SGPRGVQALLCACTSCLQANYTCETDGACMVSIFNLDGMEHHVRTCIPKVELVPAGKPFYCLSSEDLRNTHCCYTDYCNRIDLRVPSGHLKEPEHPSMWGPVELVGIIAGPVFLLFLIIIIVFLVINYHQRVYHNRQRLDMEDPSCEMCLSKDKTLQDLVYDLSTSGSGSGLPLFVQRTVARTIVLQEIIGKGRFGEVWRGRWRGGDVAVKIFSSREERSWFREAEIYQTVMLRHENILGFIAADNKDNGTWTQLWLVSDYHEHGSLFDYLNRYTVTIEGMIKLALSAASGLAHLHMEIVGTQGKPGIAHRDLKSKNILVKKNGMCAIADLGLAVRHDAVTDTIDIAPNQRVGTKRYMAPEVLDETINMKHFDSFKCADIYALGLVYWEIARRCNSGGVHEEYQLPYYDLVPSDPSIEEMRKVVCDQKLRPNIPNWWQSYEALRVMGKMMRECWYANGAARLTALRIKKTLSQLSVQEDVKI
# Description: as §1
# PDGFRb = PDGFRb (Homo sapiens, UniProt P09619); assay: Kinase assay (33P-ATP filter-binding), PDGFRb; format: biochemical; conditions: read-out: Kinase Selectivity PDGFRb
# PDGFRb, sequence (P09619 33-1106, species assumed): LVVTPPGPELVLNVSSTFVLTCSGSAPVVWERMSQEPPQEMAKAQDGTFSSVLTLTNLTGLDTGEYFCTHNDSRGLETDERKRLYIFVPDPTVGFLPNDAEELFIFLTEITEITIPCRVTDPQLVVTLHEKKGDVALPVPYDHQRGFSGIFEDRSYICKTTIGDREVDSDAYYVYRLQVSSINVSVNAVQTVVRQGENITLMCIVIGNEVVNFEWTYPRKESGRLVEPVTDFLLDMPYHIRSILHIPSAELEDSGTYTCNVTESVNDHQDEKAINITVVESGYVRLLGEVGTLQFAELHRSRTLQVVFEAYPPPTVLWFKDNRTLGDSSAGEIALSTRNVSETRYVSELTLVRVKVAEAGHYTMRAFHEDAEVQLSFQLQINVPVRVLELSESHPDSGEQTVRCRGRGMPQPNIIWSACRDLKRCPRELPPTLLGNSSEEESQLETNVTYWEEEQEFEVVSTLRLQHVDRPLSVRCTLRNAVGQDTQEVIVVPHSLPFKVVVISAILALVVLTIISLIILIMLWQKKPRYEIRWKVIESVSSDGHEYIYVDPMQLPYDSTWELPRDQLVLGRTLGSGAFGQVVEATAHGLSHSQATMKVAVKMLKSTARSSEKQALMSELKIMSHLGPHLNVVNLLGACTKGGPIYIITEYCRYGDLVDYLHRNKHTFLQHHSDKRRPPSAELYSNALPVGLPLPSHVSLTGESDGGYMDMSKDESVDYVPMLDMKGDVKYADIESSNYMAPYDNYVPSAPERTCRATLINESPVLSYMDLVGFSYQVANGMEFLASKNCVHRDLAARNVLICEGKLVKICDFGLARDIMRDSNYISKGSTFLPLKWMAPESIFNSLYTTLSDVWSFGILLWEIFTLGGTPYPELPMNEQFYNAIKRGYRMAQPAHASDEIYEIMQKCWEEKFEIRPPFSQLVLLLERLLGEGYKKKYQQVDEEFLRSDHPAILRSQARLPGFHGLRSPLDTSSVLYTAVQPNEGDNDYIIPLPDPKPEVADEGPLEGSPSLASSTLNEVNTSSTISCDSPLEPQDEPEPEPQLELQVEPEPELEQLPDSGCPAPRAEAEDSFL
# Description: as §1
# Protein binding, human = format: in vitro ADME
# TGFbR2 = TGFbR2 (Homo sapiens, UniProt P37173); assay: Kinase assay (33P-ATP filter-binding), TGFbR2; format: biochemical; conditions: read-out: Kinase Selectivity TGFbR2
# TGFbR2, sequence (P37173 23-567, species assumed): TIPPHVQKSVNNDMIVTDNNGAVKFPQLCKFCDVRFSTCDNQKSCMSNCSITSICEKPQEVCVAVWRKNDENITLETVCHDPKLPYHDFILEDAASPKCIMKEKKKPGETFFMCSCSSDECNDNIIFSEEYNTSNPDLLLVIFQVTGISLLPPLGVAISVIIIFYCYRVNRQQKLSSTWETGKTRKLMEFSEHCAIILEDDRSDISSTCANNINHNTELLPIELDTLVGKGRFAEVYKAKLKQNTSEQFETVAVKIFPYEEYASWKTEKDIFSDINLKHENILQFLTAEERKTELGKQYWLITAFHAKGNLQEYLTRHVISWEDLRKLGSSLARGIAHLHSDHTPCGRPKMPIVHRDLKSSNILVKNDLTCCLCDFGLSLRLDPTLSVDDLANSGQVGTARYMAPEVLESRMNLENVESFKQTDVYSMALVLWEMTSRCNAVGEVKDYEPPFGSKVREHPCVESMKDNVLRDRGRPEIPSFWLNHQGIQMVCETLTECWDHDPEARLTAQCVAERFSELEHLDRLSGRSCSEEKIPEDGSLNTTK
# Description: as §1
# KDR = KDR (Homo sapiens, UniProt P35968); assay: Kinase assay (33P-ATP filter-binding), KDR; format: biochemical; conditions: read-out: Kinase Selectivity KDR
# KDR, sequence (P35968 20-1356, species assumed): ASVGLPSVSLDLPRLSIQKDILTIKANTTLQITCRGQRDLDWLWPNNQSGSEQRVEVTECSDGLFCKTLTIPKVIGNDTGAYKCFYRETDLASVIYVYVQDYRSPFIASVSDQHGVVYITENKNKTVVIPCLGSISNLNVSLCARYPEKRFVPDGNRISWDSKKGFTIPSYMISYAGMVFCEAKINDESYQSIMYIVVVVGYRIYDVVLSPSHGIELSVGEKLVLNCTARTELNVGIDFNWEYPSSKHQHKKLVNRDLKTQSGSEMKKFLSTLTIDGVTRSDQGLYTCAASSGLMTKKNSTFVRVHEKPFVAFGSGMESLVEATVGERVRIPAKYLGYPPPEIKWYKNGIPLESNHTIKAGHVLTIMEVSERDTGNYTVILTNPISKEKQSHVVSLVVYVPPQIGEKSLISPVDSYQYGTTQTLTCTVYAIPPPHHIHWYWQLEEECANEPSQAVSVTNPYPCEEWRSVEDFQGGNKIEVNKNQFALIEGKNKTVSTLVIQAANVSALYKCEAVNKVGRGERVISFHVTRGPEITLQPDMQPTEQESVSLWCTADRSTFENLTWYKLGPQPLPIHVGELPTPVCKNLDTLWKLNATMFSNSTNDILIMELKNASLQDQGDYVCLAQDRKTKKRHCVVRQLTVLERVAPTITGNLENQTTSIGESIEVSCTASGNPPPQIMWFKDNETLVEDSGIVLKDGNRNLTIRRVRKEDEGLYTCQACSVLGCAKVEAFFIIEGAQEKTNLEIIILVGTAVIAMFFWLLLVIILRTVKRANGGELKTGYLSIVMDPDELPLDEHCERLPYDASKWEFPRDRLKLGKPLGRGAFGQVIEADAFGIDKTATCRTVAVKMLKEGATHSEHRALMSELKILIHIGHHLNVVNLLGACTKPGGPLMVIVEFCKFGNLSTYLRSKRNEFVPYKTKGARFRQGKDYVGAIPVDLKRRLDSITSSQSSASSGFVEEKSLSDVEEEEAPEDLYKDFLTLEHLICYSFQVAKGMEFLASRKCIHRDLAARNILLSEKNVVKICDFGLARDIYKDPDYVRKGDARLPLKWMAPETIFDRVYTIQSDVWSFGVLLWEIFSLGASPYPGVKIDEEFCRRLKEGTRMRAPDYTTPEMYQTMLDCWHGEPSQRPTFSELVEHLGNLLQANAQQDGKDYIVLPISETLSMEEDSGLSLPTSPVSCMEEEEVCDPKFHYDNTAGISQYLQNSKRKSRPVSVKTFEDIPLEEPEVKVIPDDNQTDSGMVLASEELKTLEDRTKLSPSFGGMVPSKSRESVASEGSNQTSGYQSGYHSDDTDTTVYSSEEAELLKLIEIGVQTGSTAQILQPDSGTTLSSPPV
# Description: as §1
# [3] = tested on: BMP-responsive C2C12 mouse myoblast cells stimulated with BMP4; assay: BMP4 cell assay (Id1 promoter-firefly luciferase reporter); format: cell-based; conditions: BMP4 50 ng/mL, overnight
# Description: The BMP4 cell assay were carried out briefly as follows. Stably transfected BMP-responsive C2C12 mouse myoblast cells (containing the Idl promoter-firefly luciferase reporter) were seeded in 96-well plates and incubated overnight with the compounds and BMP4 (50 ng/mL). The cells were then lysed, and cell extracts were then subjected to the firefly luciferase assay using Steady-Glo luciferase assay kit (Promega). The results were normalized to cell titers, as measured using Cell Titer-Glo luminescence assay (Promega). […] Relative activity was quantified by the ratio of firefly to Renilla luciferase activities using the dual luciferase assay kit (Promega).
# BMPR2 = molecular target: T3, BMPR2 (Homo sapiens, UniProt Q13873); assay: Kinase assay (33P-ATP filter-binding), BMPR2; format: biochemical; conditions: read-out: Kinase Selectivity BMPR2
# T3 sequence (Q13873 27-1038): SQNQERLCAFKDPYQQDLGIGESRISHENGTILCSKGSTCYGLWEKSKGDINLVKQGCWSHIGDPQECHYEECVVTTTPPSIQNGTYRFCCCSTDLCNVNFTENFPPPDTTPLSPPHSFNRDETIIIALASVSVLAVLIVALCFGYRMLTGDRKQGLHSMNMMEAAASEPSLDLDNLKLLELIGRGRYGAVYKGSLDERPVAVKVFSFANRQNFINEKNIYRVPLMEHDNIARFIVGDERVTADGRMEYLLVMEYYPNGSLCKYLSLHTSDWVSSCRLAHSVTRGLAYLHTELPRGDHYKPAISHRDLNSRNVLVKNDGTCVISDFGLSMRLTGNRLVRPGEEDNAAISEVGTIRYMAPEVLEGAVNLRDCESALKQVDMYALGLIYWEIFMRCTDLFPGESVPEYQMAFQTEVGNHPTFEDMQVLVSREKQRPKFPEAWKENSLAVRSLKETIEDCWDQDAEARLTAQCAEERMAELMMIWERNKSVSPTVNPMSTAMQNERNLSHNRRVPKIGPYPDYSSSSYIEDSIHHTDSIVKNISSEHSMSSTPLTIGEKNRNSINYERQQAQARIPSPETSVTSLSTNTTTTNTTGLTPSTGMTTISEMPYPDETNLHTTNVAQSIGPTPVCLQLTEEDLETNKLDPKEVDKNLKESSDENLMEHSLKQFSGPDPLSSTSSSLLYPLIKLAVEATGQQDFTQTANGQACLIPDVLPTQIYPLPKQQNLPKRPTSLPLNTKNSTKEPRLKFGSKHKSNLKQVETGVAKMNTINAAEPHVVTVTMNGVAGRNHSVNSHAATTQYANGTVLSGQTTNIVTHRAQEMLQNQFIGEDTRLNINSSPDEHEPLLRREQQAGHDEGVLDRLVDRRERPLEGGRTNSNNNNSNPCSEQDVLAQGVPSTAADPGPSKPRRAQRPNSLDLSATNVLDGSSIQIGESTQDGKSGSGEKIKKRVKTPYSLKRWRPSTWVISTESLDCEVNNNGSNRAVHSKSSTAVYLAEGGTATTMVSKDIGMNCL
# Description: as §1
# [4] = CL-Hep, value in parentheses, read-out: Intrinsic Clearance Human (CL-Hep)
# ALK1/ACVRL1, sequence (P37023 22-503): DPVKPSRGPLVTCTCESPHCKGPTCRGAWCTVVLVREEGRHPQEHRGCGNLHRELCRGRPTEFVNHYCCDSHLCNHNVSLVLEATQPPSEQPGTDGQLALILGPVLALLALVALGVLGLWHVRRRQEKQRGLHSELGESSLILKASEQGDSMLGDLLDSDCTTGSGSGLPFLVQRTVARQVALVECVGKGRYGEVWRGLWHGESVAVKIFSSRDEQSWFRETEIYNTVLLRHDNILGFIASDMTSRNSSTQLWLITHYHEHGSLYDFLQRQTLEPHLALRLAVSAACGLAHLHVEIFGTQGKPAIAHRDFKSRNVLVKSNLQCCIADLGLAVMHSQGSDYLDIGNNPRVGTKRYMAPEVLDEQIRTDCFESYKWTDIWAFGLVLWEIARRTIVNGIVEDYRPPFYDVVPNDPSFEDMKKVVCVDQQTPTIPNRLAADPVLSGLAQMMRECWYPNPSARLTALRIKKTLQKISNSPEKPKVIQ
"CLint scaled ([1]; CL-Hep, value in parentheses, read-out: Intrinsic Clearance Mouse (CL-Hep)) [mL/min/kg]",CLint scaled ([1]; read-out: Intrinsic Clearance Mouse) [mL/min/kg],IC50 (ALK1/ACVRL1) [nM],IC50 (ALK6) [nM],"CLint scaled [2, 4] [mL/min/kg]",CLint scaled ([2]; read-out: Intrinsic Clearance Human) [mL/min/kg],"Protein Binding (% Free) Mouse (Protein binding, mouse) [% Free]",IC50 (ALK5) [nM],IC50 (ALK3/BMPR1A) [nM],IC50 (ALK4) [nM],IC50 (PDGFRb) [nM],"Protein Binding (% Free) Human (Protein binding, human) [% Free]",IC50 (TGFbR2) [nM],IC50 (KDR) [nM],"IC50 ([3]; Mus musculus, C2C12, C2C12 cells) [nM]",IC50 (BMPR2) [nM],Intrinsic Clearance Mouse [1] [mL/min/kg],"Intrinsic Clearance Mouse (CL-Hep) ([1]; CL-Hep, value in parentheses)","Intrinsic Clearance Human (CL-Hep) ([2]; CL-Hep, value in parentheses)",IC50 ([3]; C2C12 cells) [nM],SMILES
< 32.9,< 49.5,89.2,188,14,46.7,8.52,717,< 5.1,390,6930,10.3,498,36900,29.6,> 100000,–,–,–,–,Cc1cc(-c2cnc3cc(-c4ccc(C5CNCCN5)cc4)ccn23)c2cc(F)ccc2n1 (centres unmarked) [Compound 17]
–,–,16.4,231,–,–,5.48,456,< 5.1,386,6490,7.33,2680,31400,–,> 100000,<49.5,(<32.94) mL/kg/min,(12.4) mL/kg/min,34.9,Cc1cc(-c2cnc3cc(-c4ccc(C5CNCCN5)cc4)ccn23)c2cc(F)ccc2n1 (centres unmarked) [Compound 18]
–,–,72.1,128,17.5,–,–,232,< 5.1,113,5200,–,388,39300,–,> 50000,–,–,–,–,Cc1cc(-c2cnc3cc(-c4ccc(C5COCCN5)cc4)ccn23)c2cc(F)cc(F)c2n1 (centres unmarked) [Compound 22]
